According to patent US12162884B2, “Solid forms of (R)-N-(2-(5-fluoropyridin-3-yl)-8-isopropylpyrazolo[1,5-a] [1,3,5]triazin-4-yl)-2,3,4,9-tetrahydro-1H-carbazol-3-amine as aryl hydrocarbon receptor (AHR) inhibitors” (Ikena Oncology, Inc., priority 2019, dated 2024):
In brackets after ≈: the same amount, converted by molar mass. Marks after values point to notes of the source that are not given here.

Legend:
[1] = Stability studies at 40° C./75% RH (HPLC); format: physicochemical; details: for stability / degradation over time: Time 0, 1 week, 2 weeks, 4 weeks
Experimental: Stability studies of compound A, Form B, Compound 1, Form B, Compound 2, Form A, Compound 3, Form B, and Compound 4, Form A was carried out at 40° C./75% RH. Samples were stored in loosely capped vials in a chamber containing a saturated NaCl solution to achieve approximately 75% RH within the chamber. The chamber was stored in a 40° C. oven. Samples were analyzed at Time 0, 1 week, 2 weeks, and 4 weeks using the HPLC parameters described above in Table 13.

[2] = Solubility studies in water, FaSSIF, FeSSIF and FaSSGF (excess solids in 5 mL medium at 37° C., HPLC; pH, XRPD and NMR of remaining material); format: physicochemical; details: for solubility at 30 min / solubility at 120 min / solubility at 24 h: 37 °C, thermodynamic from solid; for pH: pH of solubility sample; for Solubility / solubility at 24 hours in FeSSIF: 37° C.; for solubility at 24 hours in FeSSIF: comparison among the tested forms
Experimental: Simulated fluids were sourced from and prepared according to biorelevant.com using their FaSSIF/FeSSIF/FaSSGF Powder (v1, formerly known as SIF Powder). Samples were prepared by adding excess solids to 5 mL of medium at 37° C. Samples were pulled and filtered at 30 minutes, 120 minutes, and 24 hours and tested for solution concentration using the HPLC parameters described below in Table 13.
The pH of the samples at each timepoint was also measured; pH paper was used at 30 minutes and 120 minutes due to the small sample size, and a pH meter was used at 24 hours. The remaining material from all trials was analyzed by XRPD after 24 hours to determine if any polymorphic form changes had taken place. The remaining material from trials in water was analyzed by NMR after 24 hours to determine if disassociation had taken place.

[3] = FaSSGF, fassgf or other biorelevant, 30 minutes
[4] = FaSSGF, fassgf or other biorelevant, 120 minutes
[5] = FaSSGF, fassgf or other biorelevant, 24 hours

Structure (SMILES) | % Area ([1]; 1 Week, HPLC) [% Area] | % Area ([1]; 2 Weeks, HPLC) [% Area] | % Area ([1]; 4 Weeks, HPLC) [% Area] | stability / degradation over time ([1]; HPLC) | % Area ([1]; Time 0, HPLC) [% Area] | solubility at 30 min [2, 3] [µg/mL] | solubility at 120 min [2, 4] [µg/mL] | solubility at 24 h [2, 5] [µg/mL] | pH ([2]; FaSSGF, 30 minutes, pH paper) | pH ([2]; FaSSGF, 120 minutes, pH paper) | pH ([2]; FaSSGF, 24 hours, pH meter) | pH ([2]; FaSSIF, 30 minutes, pH paper) | pH ([2]; FaSSIF, 120 minutes, pH paper) | pH ([2]; FaSSIF, 24 hours, pH meter) | pH ([2]; FeSSIF, 30 minutes, pH paper) | pH ([2]; FeSSIF, 120 minutes, pH paper) | pH ([2]; FeSSIF, 24 hours, pH meter) | pH ([2]; Water, 30 minutes, pH paper) | pH ([2]; Water, 120 minutes, pH paper) | pH ([2]; Water, 24 hours, pH meter) | other results
CC(C)c1cnn2c(N[C@@H]3CCc4[nH]c5ccccc5c4C3)nc(-c3cncc(F)c3)nc12.CCS(=O)(=O)O [Compound 1 Form B] | 99.59 | 99.53 | 99.46 | equally stable | 99.90 | < 0.1 | < 0.1 | < 0.1 | 1.5 | 1.5 | 1.2 | 6 | 6 | 6.2 | 5 | 5 | 4.8 | 4.5 | 4.5 | 3.4 | solubility at 30 min ([2]; FaSSIF, 30 minutes): 45 µg/mL; solubility at 120 min ([2]; FaSSIF, 120 minutes): 34 µg/mL; solubility at 24 h ([2]; FaSSIF, 24 hours): 18 µg/mL; solubility at 30 min ([2]; FeSSIF, 30 minutes): 58 µg/mL; solubility at 120 min ([2]; FeSSIF, 120 minutes): 56 µg/mL; solubility at 24 h ([2]; FeSSIF, 24 hours): 63 µg/mL; solubility at 30 min ([2]; water, 30 minutes): < 0.1 µg/mL; solubility at 120 min ([2]; water, 120 minutes): < 0.1 µg/mL; solubility at 24 h ([2]; water, 24 hours): < 0.1 µg/mL
CC(C)c1cnn2c(N[C@@H]3CCc4[nH]c5ccccc5c4C3)nc(-c3cncc(F)c3)nc12 [Compound A Form B, (3R)—N-[2-(5-fluoro-3-pyridyl)-8-isopropyl-pyrazolo[1,5-a][1,3,5]triazin-4-yl]-2,3,4,9-tetrahydro-1H-carbazol-3-amine] | 99.22 | 99.05 | 99.58 | equally stable |  |  |  |  |  |  |  | 6 | 6 | 6.4 | 5 | 5 | 4.8 |  | 4.5 | 7.7 | % Area ([1]; Time 0, HPLC, 1 mg/mL): 99.62* % Area; Solubility ([2]; FaSSGF, 30 minutes): <0.1 µg/mL; Solubility ([2]; FaSSGF, 120 minutes): <0.1 µg/mL; Solubility ([2]; FaSSGF, 24 hours): <0.1 µg/mL; Solubility ([2]; FaSSIF, 30 minutes): 4.9 µg/mL (≈ 11.1 µM); Solubility ([2]; FaSSIF, 120 minutes): 11 µg/mL (≈ 24.9 µM); Solubility ([2]; FaSSIF, 24 hours): 9.5 µg/mL (≈ 21.5 µM); Solubility ([2]; FeSSIF, 30 minutes): <0.1 µg/mL; Solubility ([2]; FeSSIF, 120 minutes): 27 µg/mL (≈ 61.2 µM); Solubility ([2]; FeSSIF, 24 hours): 21 µg/mL (≈ 47.6 µM); Solubility ([2]; Water, 30 minutes): <0.1 µg/mL; Solubility ([2]; Water, 120 minutes): <0.1 µg/mL; Solubility ([2]; Water, 24 hours): <0.1 µg/mL
CC(C)c1cnn2c(N[C@@H]3CCc4[nH]c5ccccc5c4C3)nc(-c3cncc(F)c3)nc12 [Compound 4 Form A] | 94.31 | 94.20 | 99.37 | exhibited degradation at 1 and 2 weeks, but the degradant peaks were no longer present at 4 weeks | 99.77 |  |  |  | 1.5 | 1.5 | 1.1 | 6 | 5.5 | 1.9 | 5 | 4.5 | 4.4 | 4.5 | 3 | 1.5 | Solubility ([2]; FaSSGF, 30 minutes): <0.1 µg/mL; Solubility ([2]; FaSSGF, 120 minutes): <0.1 µg/mL; Solubility ([2]; FaSSGF, 24 hours): <0.1 µg/mL; Solubility ([2]; FaSSIF, 30 minutes): 71 µg/mL (≈ 161 µM); Solubility ([2]; FaSSIF, 120 minutes): 38 µg/mL (≈ 86.1 µM); Solubility ([2]; FaSSIF, 24 hours): 25 µg/mL (≈ 56.6 µM); Solubility ([2]; FeSSIF, 30 minutes): 48 µg/mL (≈ 109 µM); Solubility ([2]; FeSSIF, 120 minutes): 110 µg/mL (≈ 249 µM); Solubility ([2]; FeSSIF, 24 hours): 33 µg/mL (≈ 74.7 µM); Solubility ([2]; Water, 30 minutes): <0.1 µg/mL; Solubility ([2]; Water, 120 minutes): <0.1 µg/mL; Solubility ([2]; Water, 24 hours): <0.1 µg/mL
CC(C)c1cnn2c(N[C@@H]3CCc4[nH]c5ccccc5c4C3)nc(-c3cncc(F)c3)nc12.CS(=O)(=O)O [Compound 3 Form B] | 91.60 | 69.61 | 16.23 | significant degradation was observed over time | 99.88 | < 0.1 | < 0.1 | < 0.1 | 1.5 | 1.5 | 1.2 | 6 | 6 | 5.7 | 5 | 5 | 4.4 | 4 | 4 | 2.4 | solid state of the solids at the end of the study ([1]; end of the study): lost all crystallinity and became x-ray amorphous; solubility at 30 min ([2]; FaSSIF, 30 minutes): 65 µg/mL; solubility at 120 min ([2]; FaSSIF, 120 minutes): 34 µg/mL; solubility at 24 h ([2]; FaSSIF, 24 hours): 16 µg/mL; solubility at 24 hours in FeSSIF ([2]; FeSSIF, 24 hours): highest solubility; solubility at 30 min ([2]; FeSSIF, 30 minutes): 27 µg/mL; solubility at 120 min ([2]; FeSSIF, 120 minutes): 43 µg/mL; solubility at 24 h ([2]; FeSSIF, 24 hours): 160 µg/mL; solubility at 30 min ([2]; water, 30 minutes): < 0.1 µg/mL; solubility at 120 min ([2]; water, 120 minutes): < 0.1 µg/mL; solubility at 24 h ([2]; water, 24 hours): < 0.1 µg/mL
CC(C)c1cnn2c(N[C@@H]3CCc4[nH]c5ccccc5c4C3)nc(-c3cncc(F)c3)nc12 [Compound 2 Form A] | 99.20 | 98.30 | 98.58 | fairly stable | 99.87 | < 0.1 | < 0.1 | < 0.1 |  |  | 1.2 | 6 | 6 | 5.0 | 5 | 5 | 4.7 | 3.5 | 4 | 2.9 | loss of area over four weeks ([1]; four weeks, HPLC): ~1.5 % area; Solubility ([2]; FaSSIF, 30 minutes): 78 µg/mL (≈ 177 µM); Solubility ([2]; FaSSIF, 120 minutes): 40 µg/mL (≈ 90.6 µM); Solubility ([2]; FaSSIF, 24 hours): 14 µg/mL (≈ 31.7 µM); Solubility ([2]; FeSSIF, 30 minutes): 58 µg/mL (≈ 131 µM); Solubility ([2]; FeSSIF, 120 minutes): 160 µg/mL (≈ 362 µM); Solubility ([2]; FeSSIF, 24 hours): 120 µg/mL (≈ 272 µM); solubility at 24 hours in FeSSIF ([2]; FeSSIF, 24 hours): highest solubility; solubility at 30 min ([2]; water, 30 minutes): < 0.1 µg/mL; solubility at 120 min ([2]; water, 120 minutes): < 0.1 µg/mL; solubility at 24 h ([2]; water, 24 hours): < 0.1 µg/mL
